This is an account of results in patent US4794124A, “Therapeutic composition for diabetic complications” (priority 1985, dated 1988).

The structures appear in SMILES notation.

Series [1] relates to diabetic rats. In words: Blood glucose in streptozotocin-induced diabetic rats. The format is in vivo, male SD rats. Particulars: cysteine 400 mg/kg/day oral, n = 8-10, normal 220 ± 20. How it is done:
(§1) The effects of oral administration of cysteine in diabetic rats were investigated.
(§2) A second group received tap water similarly.
(§3) Blood glucose was determined 2 days and 11 weeks after administration of streptozotocin to confirm that the rats were in hyperglycemic condition. Further, body weight was determined periodically during the study period. After 11 weeks, the blood was withdrawn from the abdominal aorta for clinical serum chemical examination. Moreover, to monitor the cataract supervening in diabetes, the rat crystalline lens was periodically examined using a slit lamp.

The nature of series [2]: Time course of body weight in streptozotocin-induced diabetic rats. It is filed as in vivo, male SD rats. Particulars: long-term repeated administration, 400 mg/kg/day oral. How it is done: as §1, §2, §3
The subject of series [3] is diabetic rats. The experiment in a line: Clinical serum chemistry values at week 11 in streptozotocin-induced diabetic rats. The following applies: 400 mg/kg/day oral. The format is in vivo, male SD rats. As to the method: as §1, §2, §3
Series [4] has as its system rat crystalline lens. The experiment in a line: Progression of cataract in streptozotocin-induced diabetic rats (slit lamp, 7 stages). The following applies: 400 mg/kg/day oral. The format is in vivo, male SD rats. As to the method:
as §2, §3
The progression of cataract was evaluated on the scale of the following 7 stages up to mature cataract.
0: No lens opacity at all
I: Slight opacity of the lens epithelium or small vacuoles in the equatorial region.
II: Vacuoles multiplying and merging to spread into the cortex.
III: The vacuoles pervading most of the cortex have begun to disappear.
IV: The majority of vacuoles have disappeared and the whole cortex is translucent.
V: Opacity of the lens nucleus.
VI: Opacity of the whole lens (mature cataract)
Then, cataract which is a diabetic complication ready to develop in such diabetic animal models was studied by monitoring the rats for 11 weeks.
The bar graphs in FIG. 1(a) through (f) show the time course of cataract stages. […]

Series [5] has as its system lens sorbitol. In words: Sorbitol content of the lens in streptozotocin-induced diabetic rats. The following applies: for Sorbitol content of the lens: n = 4-5.
Experimental: Using male SD rats weighing about 100 g, experimental diabetes was induced by injecting 70 mg/kg of streptozotocin into the caudal vein.
The rats were divided into 2 groups of 10 individuals. A first group of rats were given a 10% aqueous solution of cysteine in a volume of 0.2 ml/100 g body weight twice daily (cysteine 400 mg/kg/day) by gastric gavage beginning the day before administration of streptozotocin. This group is referred to as the cysteine-treated group. A second group received tap water similarly. This group is referred to as the control group.

For `N[C@@H](CS)C(=O)O` [cysteine], the Blood glucose was 767 ± 77 mg/dL in series [1] (after 11 weeks, control 721 ± 75) and 559 ± 99 mg/dL in series [1] (after 2 days, control 521 ± 78). In series [2], the “Effect on body weight gain in diabetic rats” value is on record as “did not affect the body weight gain”. For the same molecule, the “Serum chemical parameters (overall)” value in series [3] was “close to the normal values”. In series [3] (n = 8-10, normal 0.2 ± 0.0, control 0.43 ± 0.23), this molecule returned a Total bilirubin of 0.28 ± 0.18 mg/dL. In series [3] (n = 8-10, normal 1.8 ± 0.4, control 2.5 ± 2.5), this molecule showed a Uric acid of 1.5 ± 0.5 mg/dL. In series [3] (n = 8-10, normal 2.4 ± 2.0, control 42.9 ± 31.3), the γ-GTP is recorded as 13.4 ± 7.2 U/L. This molecule came in with a Lipid peroxide in series [3] (n = 8-10, normal 3.95 ± 0.53, control 5.40 ± 0.68) of 4.48 ± 0.56 nmol/dL. Further, the ALP in series [3] (n = 8-10, normal 48 ± 8, control 83 ± 25) turned out to be 68 ± 26 KAU. Besides, the Total cholesterol in series [3] (n = 8-10, normal 51 ± 6, control 175 ± 76) came out at 118 ± 57 mg/dL. In series [3] (n = 8-10, normal 61 ± 27, control 450 ± 320), this molecule gave a GPT of 311 ± 184 U/L. In addition, the Neutral lipid in series [3] (n = 8-10, normal 90 ± 25, control 1437 ± 858) came out at 645 ± 605 mg/dL. In series [3] (n = 8-10, normal 102 ± 42, control 952 ± 1038), this molecule showed a GOT of 495 ± 358 U/L. In series [3] (n = 8-10, normal 112 ± 13, control 493 ± 233), this molecule gave a β-lipoprotein of 299 ± 173 mg/dL. Besides, the LAP in series [3] (n = 8-10, normal 199 ± 15, control 297 ± 78) came out at 234 ± 66 GRU. The TTT in series [3] (thymol turbidity test, n = 8-10, normal 0.15 ± 0.05, control 3.94 ± 3.88) stood at 1.03 ± 0.90 U. In addition, the ZST in series [3] (zinc sulfate test, n = 8-10, normal 1.2 ± 0.1, control 6.2 ± 4.8) was 2.6 ± 1.3 U. Also, the “Progress of cataract compared with the control group” value in series [4] (any observation period (2, 4, 6, 8, 10, 11 weeks), FIG. 1) is listed as “the progress of cataract was inhibited”. Moreover, in series [4] (p<0.0001 vs control), the “Effect on progression of cataract (cumulative variance analysis)” value was “significant retarding effect on the progression of cataract”. For the same molecule, the “Accumulation of sorbitol in the lens, cysteine-treated vs control group” value in series [5] (2 and 3 weeks after streptozotocin) is “no significant difference”. Besides, the “Sorbitol content of the lens” value came to 1.056 ± 0.166 μmole/lens in series [5] (after 2 weeks, control 0.996 ± 0.286) and 1.025 ± 0.031 μmole/lens in series [5] (after 3 weeks, control 1.186 ± 0.164).
